Results on five molecules are retold here after publication PMC10746112, “Synthesis and Pro-Apoptotic Effects of Nitrovinylanthracenes and Related Compounds in Chronic Lymphocytic Leukaemia (CLL) and Burkitt’s Lymphoma (BL)” (Molecules, 2023).

The test system of one series is HG-3 CLL cell line. The series can be described thus: alamarBlue cell viability assay. To be noted: for viability at 1 µM / viability at 10 µM / IC50: 24 h; for viability at 1 µM: read-out: % Viability HG-3, 1 µM, 24 h; for viability at 10 µM: read-out: % Viability HG-3, 10 µM, 24 h; for fold greater response (IC50) in HG-3 compared to PGA-1 cells: ratio of IC50 values. For orientation: Alamar Blue is a resazurin reagent that responds to reducing activity.

For series [1], the system named is MUTU-I Burkitt’s lymphoma cell line. Put plainly: alamarBlue cell viability assay. To be noted: MUTU-I; for viability at 1 µM / viability at 10 µM: 24 h; for viability at 1 µM: read-out: % Viable Cells Remaining MUTU-1, 1 µM, 24 h; for viability at 10 µM: read-out: % Viable Cells Remaining MUTU-1, 10 µM, 24 h.
Series [2] deals with DG-75 Burkitt’s lymphoma cell line. The series can be described thus: alamarBlue cell viability assay. The following applies: Homo sapiens; for viability at 1 µM / viability at 10 µM: DG-75, 48 h; for viability at 1 µM: read-out: % Viable Cells Remaining DG-75, 1 µM, 48 h; for viability at 10 µM: read-out: % Viable Cells Remaining DG-75, 10 µM, 48 h.
The next series deals with PGA-1 CLL cell line. The series can be described thus: alamarBlue cell viability assay. The following applies: 24 h; for viability at 10 µM: read-out: % Viability PGA-1, 10 µM, 24 h.
A further series relates to HG-3 CLL cells. The series can be described thus: Annexin V/PI apoptotic assay (FACS). Format: cell-based. To be noted: 48 h. How it is done:
(§1) The pro-apoptotic effects of the selected nitrovinylanthracene compounds 19a, 19g, 19i, 19l and 19m after 48 h were next determined using FITC (fluorescein isothiocyanate), Annexin V/PI (propidium iodide) staining and FACS (fluorescence-activated cell sorting) analysis to characterize the mode of cellular death induced. […] The CLL cells PGA1 and HG3 (1 × 10^6 cells/mL) were treated at 37 °C with either vehicle (1% (v/v) DMSO) or the nitrostyrene compounds 19a (10 μM, 5 μM and 1 μM) and 19g, 19i, 19l and 19m (10 μM and 1 μM) for 48 h. The cells were then harvested by centrifugation at 400× g in a temperature-controlled Sorvall centrifuge and rinsed with 0.5 mL of Ca^2+ Annexin-V-binding buffer (0.1 M HEPES, pH 7.4; 0.14 M NaCl; 25 mM CaCl2). The samples were resuspended in 50 µL FITC Annexin V (diluted 1:33 in Ca^2+ Annexin V-binding buffer), incubated on ice for 10 min (protected from light), washed with Annexin-V-binding buffer and re-suspended in 500 µL of propidium iodide (PI) solution (0.5 µg/mL). The samples were analysed within 1 h using a BD Accuri C6 flow cytometer counting 10,000 cells and analysed using the FlowJo software (FlowJo LLC, Ashland, OR, USA) package.

The subject of another series is PGA-1 CLL cells. Put plainly: Annexin V/PI apoptotic assay (FACS). Format: cell-based. The following applies: 48 h. The procedure: as §1
The next series in a line: physchem. Format: physicochemical. The following applies: buffer. How it is done:
A preliminary HPLC stability study was performed on a representative nitrovinylanthracene compound 19m (isopropyl) in various biologically relevant pH systems (acidic pH 4 found in the stomach, basic pH 9 found in the intestine and pH 7.4 in the plasma). […] Based on the results of this stability study, the compound 19m was determined to be suitable for further preclinical investigation.

Series [3] has as its system MCF-7 human breast cancer cells. Put plainly: alamarBlue cell viability assay. To be noted: MCF7, read-out: MCF-7 IC50.
Series [4] has as its system MDA-MB-231 human breast cancer cells. The series can be described thus: alamarBlue cell viability assay. In kind it is cell-based. To be noted: eight concentrations 0.001–50 μM.
Series [5] relates to MUTU-I Burkitt’s lymphoma cell line. To be noted: read-out: IC50 MUTU-I; previous work; cited from earlier work.
For series [6], the system named is DG-75 Burkitt’s lymphoma cell line. To be noted: read-out: IC50 DG-75; previous work; cited from earlier work.
Setting [7] is: CLL cell, read-out: HG-3 IC50, 24 h.
[8] abbreviates: CLL cell, read-out: PGA-1 IC50, 24 h.

Usually IC50 stands for the concentration at which inhibition is half-maximal. Broadly, the half-life is the time in which the quantity being followed falls by half. A high value points to slow decline. The term amount remaining denotes what is left of the initial amount, in per cent.

Like-named read-outs stand apart in the source and are kept apart here.

In the case of `CC(C)c1c2ccccc2c(/C=C/[N+](=O)[O-])c2ccccc12` [Compound 19m, (E)-9-Isopropyl-10-(2-Nitrovinyl)Anthracene], the viability at 1 µM amounted to 82% in the series on HG-3 CLL cell line (CLL cell), 78.4% in series [1] and 85.2% in [2]. For the same molecule, the viability at 10 µM in the series with HG-3 CLL cell line (CLL cell) came to 0.9%; in series [1], 0.21%; in series [2] it was 28.1%; with PGA-1 CLL cell line (CLL cell), 2.9%. Also, the IC50 in the series with HG-3 CLL cell line (setting [7]) worked out at 0.7 µM; with PGA-1 CLL cell line (setting [8]) it was 9.1 µM. In addition, the “fold greater response (IC50) in HG-3 compared to PGA-1 cells” value in the series on HG-3 CLL cell line amounted to 13 fold. For the same molecule, the total apoptosis in the series with HG-3 CLL cells (HG-3, 1 μM) is on record as 25%; in the series with HG-3 CLL cells (HG-3, 10 μM), 69%; with PGA-1 CLL cells (PGA-1, 10 μM), 74%. In addition, the half-life is > 24 h in “physchem” (pH 4), > 24 h in “physchem” (pH 7.4) and 19 h in “physchem” (pH 9). Further, the share remaining at 24 h in “physchem” (pH 4) was found to be 55%; in “physchem” (pH 7.4) it was 56%; in “physchem” (pH 9), 42%.
Regarding `COc1c2ccccc2c(/C=C/[N+](=O)[O-])c2ccccc12` [Compound 19g], the viability at 10 µM is 0.5 to 8.3% with HG-3 CLL cell line (CLL cell), 1.85% in series [1], 13.8% in series [2] and 1.21% with PGA-1 CLL cell line (CLL cell). Also, the IC50 was 0.17 µM in the series with HG-3 CLL cell line (setting [7]); 5.31 µM in series [3]; 3.78 µM in series [4]; 1.3 µM with PGA-1 CLL cell line (setting [8]); 1.29 µM in the series with PGA-1 CLL cell line (read-out: PGA-1 IC50). For the same molecule, the “fold greater response (IC50) in HG-3 compared to PGA-1 cells” value with HG-3 CLL cell line is given as 7.8 fold. Further, the viability at 1 µM in series [1] is 90.1%; in [2], 89.2%; in the series with PGA-1 CLL cell line (CLL cell, read-out: % Viability PGA-1, 1 µM, 24 h), 43%. Moreover, the total apoptosis in the series on HG-3 CLL cells (HG-3, 1 μM) worked out at 11%; in the series with HG-3 CLL cells (HG-3, 10 μM), 54%; in the series on PGA-1 CLL cells (PGA-1, 10 μM), 52%.
For the molecule `Cc1c2ccccc2c(/C=C/[N+](=O)[O-])c2ccccc12` [Compound 19i, (E)-9-Methyl-10-(2-Nitrovinyl)Anthracene], the viability at 10 µM in the series with HG-3 CLL cell line (CLL cell) was 0.5 to 8.3%; in [1], 1.95%; in series [2], 19.5%; with PGA-1 CLL cell line (CLL cell), 2.9%. The IC50 in the series with HG-3 CLL cell line (setting [7]) is 3.85 µM; in series [3], 2.11 µM; in series [4], 3.26 µM; in the series on PGA-1 CLL cell line (setting [8]), 4.4 µM. Moreover, the viability at 1 µM in [1] is 94.5%; in [2] it was 96.7%. Besides, the total apoptosis is on record as 70% in the series on HG-3 CLL cells (HG-3, 10 μM) and 80% in the series with PGA-1 CLL cells (PGA-1, 10 μM).
`O=[N+]([O-])/C=C/c1c2ccccc2cc2ccccc12` [Compound 19a, (E)-9-(2-nitrovinyl)anthracene]: the viability at 10 µM was found to be 8% in the series with HG-3 CLL cell line (CLL cell), 5.91% in [1], 14% in series [2] and 5.1% in the series with PGA-1 CLL cell line (CLL cell). For the same molecule, the half-maximal inhibitory concentration (IC50) with HG-3 CLL cell line (setting [7]) was determined as 2.4 µM; in the series with HG-3 CLL cell line (read-out: HG-3 IC50) it was 2.43 µM; in series [1] (read-out: IC50 MUTU-I), 2.57 µM; in series [3], 1.85 µM; in series [4], 3.82 µM; in [2] (DG-75, read-out: IC50 DG-75), 2.08 µM. For the same molecule, the results for the IC50 (in the series on PGA-1 CLL cell line (setting [8]); in series [5]; in [6]) were 3.1 µM, 3 µM and 1.5 µM, respectively. Further, the viability at 1 µM stood at 82.5% in series [1] and 94.6% in series [2]. In addition, the total apoptosis in the series with HG-3 CLL cells (HG-3, 1 μM) was 21%; in the series with HG-3 CLL cells (HG-3, 5 μM), 69%; with HG-3 CLL cells (HG-3, 10 μM), 93%; in the series on PGA-1 CLL cells (PGA-1, 1 μM), 40%; in the series with PGA-1 CLL cells (PGA-1, 5 μM) it was 67%; in the series with PGA-1 CLL cells (PGA-1, 10 μM), 94%.
Turning to `CCc1c2ccccc2c(/C=C/[N+](=O)[O-])c2ccccc12` [Compound 19l, (E)-9-Ethyl-10-(2-Nitrovinyl)Anthracene], the viability at 1 µM came to 78% with HG-3 CLL cell line (CLL cell), 72.7% in [1] and 104% in series [2]. In addition, the viability at 10 µM in the series with HG-3 CLL cell line (CLL cell) is 0.5%; in series [1] it was 0.5%; in series [2], 4.04%; in the series on PGA-1 CLL cell line (CLL cell), 2.7%. The IC50 amounted to 5.4 µM with HG-3 CLL cell line (setting [7]) and 1.3 µM in the series with PGA-1 CLL cell line (setting [8]). Further, the total apoptosis amounted to 74% in the series on HG-3 CLL cells (HG-3, 10 μM) and 82% in the series on PGA-1 CLL cells (PGA-1, 10 μM).
